Experimental data: patent US20250101041A1, “POSITIVE ALLOSTERIC MODULATORS OF THE MUSCARINIC ACETYLCHOLINE RECEPTOR M4” (Vanderbilt University, priority 2022, published 2025)

Molecular target: T1, human mAChR M4 (Homo sapiens, UniProt P08173)
T1 construct: expressed in transfected cells; host or cells: CHO-K1 (American Type Culture Collection), stably expressing hM4 and Gqi5
T1 sequence (P08173 1-479): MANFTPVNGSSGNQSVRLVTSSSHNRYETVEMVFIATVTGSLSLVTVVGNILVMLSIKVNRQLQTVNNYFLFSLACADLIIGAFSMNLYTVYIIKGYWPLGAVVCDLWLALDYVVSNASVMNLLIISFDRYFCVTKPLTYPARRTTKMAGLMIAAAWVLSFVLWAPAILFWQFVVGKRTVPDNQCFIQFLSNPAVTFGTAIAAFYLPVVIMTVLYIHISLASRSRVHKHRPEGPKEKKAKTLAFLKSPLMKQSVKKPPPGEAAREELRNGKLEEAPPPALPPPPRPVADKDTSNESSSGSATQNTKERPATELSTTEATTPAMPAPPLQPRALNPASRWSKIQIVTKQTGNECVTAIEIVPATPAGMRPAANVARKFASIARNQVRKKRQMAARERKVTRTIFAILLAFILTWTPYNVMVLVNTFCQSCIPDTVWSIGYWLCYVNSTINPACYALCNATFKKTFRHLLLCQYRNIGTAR
Experiment: mAChR M4 cell-based functional assay: calcium mobilization (Fluo-4, FDSS), potentiation of EC20 acetylcholine response in hM4-Gqi5 CHO-K1 cells
Settings: human M4; for Emax at 30 µM: CHO-K1, % ACh maximum at 30 μM; for EC50: potentiation of EC20 acetylcholine response, calcium mobilization
Method in brief: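 CHO-K1 cells stably co-expressing human M4 and chimeric Gqi5, loaded with Fluo-4 AM (50 min, 37 °C). Compounds in 11-point 1:3 series added first; EC20 acetylcholine added at 144 s and again at 230 s. Calcium read on FDSS at 1 Hz; EC50 and Emax from four-parameter logistic fit of potentiated EC20 response.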

Emax at 30 µM	EC50	SMILES
91%	29 nM	Cc1cc2nccc(=O)n2nc1N1CCc2ncc(Nc3ccccc3)cc2C1 [Compound 2-60, 8-methyl-7-(3-(phenylamino)-7,8-dihydro-1,6-naphthyridin-6(5H)-yl)-4H-pyrimido[1,2-b]pyridazin-4-one]
115%	30 nM	Cc1cc2ncc(Cl)c(=O)n2nc1N1CCc2ncc(N3CCCn4nccc43)cc2C1 [Compound 2-4, 3-chloro-7-(3-(6,7-dihydropyrazolo[1,5-a]pyrimidin-4(5H)-yl)-7,8-dihydro-1,6-naphthyridin-6(5H)-yl)-8-methyl-4H-pyrimido[1,2-b]pyridazin-4-one]
80%	1820 nM	Cc1cc2nccc(=O)n2nc1N1CCc2ncc(NCC3CCOCC3)cc2C1 [Compound 2-91, 8-methyl-7-(3-(((tetrahydro-2H-pyran-4-yl)methyl)amino)-7,8-dihydro-1,6-naphthyridin-6(5H)-yl)-4H-pyrimido[1,2-b]pyridazin-4-one]
97%	48 nM	Cc1cc2nccc(=O)n2nc1N1CCc2ncc(Nc3ccncc3Cl)cc2C1 [Compound 2-113, 7-(3-((3-chloropyridin-4-yl)amino)-7,8-dihydro-1,6-naphthyridin-6(5H)-yl)-8-methyl-4H-pyrimido[1,2-b]pyridazin-4-one]
62%	398 nM	COc1cc(F)ccc1Nc1cnc2c(c1)CN(c1nn3c(=O)ccnc3cc1C)CC2 [Compound 2-74, 7-(3-((4-fluoro-2-methoxyphenyl)amino)-7,8-dihydro-1,6-naphthyridin-6(5H)-yl)-8-methyl-4H-pyrimido[1,2-b]pyridazin-4-one]
83%	20 nM	Cc1c(N2CCc3ncc(N4CCCn5nccc54)cc3C2)nn2c(=O)cc(C(F)(F)F)nc2c1C [Compound 2-30, 7-(3-(6,7-dihydropyrazolo[1,5-a]pyrimidin-4(5H)-yl)-7,8-dihydro-1,6-naphthyridin-6(5H)-yl)-8,9-dimethyl-2-(trifluoromethyl)-4H-pyrimido[1,2-b]pyridazin-4-one]
84%	2 nM	[2H]C1([2H])Cc2ncc(Nc3ccccc3F)cc2C([2H])([2H])N1c1nn2c(=O)ccnc2cc1C [Compound 2-166, 7-(3-((2-fluorophenyl)amino)-7,8-dihydro-1,6-naphthyridin-6(5H)-yl-5,5,7,7-d4)-8-methyl-4H-pyrimido[1,2-b]pyridazin-4-one]

Further lines, the compound ahead of its results:

SMILES	Emax at 30 µM	EC50
COCc1cc(=O)n2nc(N3CCc4ncc(-c5ccc(F)nc5)cc4C3)c(C)cc2n1 [Compound 1-322, 7-(3-(6-fluoropyridin-3-yl)-7,8-dihydro-1,6-naphthyridin-6(5H)-yl)-2-(methoxymethyl)-8-methyl-4H-pyrimido[1,2-b] pyridazin-4-one]	82%	374 nM
Cc1c(N2CCc3ncc(-c4cncc(C#N)c4)cc3C2)nn2c(=O)cc(C(F)F)nc2c1C [Compound 1-157, 5-(6-(2-(difluoromethyl)-8,9-dimethyl-4-oxo-4H-pyrimido[1,2-b]pyridazin-7-yl)-5,6,7,8-tetrahydro-1,6-naphthyridin-3-yl)nicotinonitrile]	100%	426 nM
Cc1cc(=O)n2nc(N3CCc4ncc(-c5ccc(F)cc5F)cc4C3)c(C)c(C)c2n1 [Compound 1-279, 7-(3-(2,4-difluorophenyl)-7,8-dihydro-1,6-naphthyridin-6(5H)-yl)-2,8,9-trimethyl-4H-pyrimido[1,2-b]pyridazin-4-one]	81%	1120 nM
COCc1cc(=O)n2nc(N3CCc4ncc(-c5ncc(C)cc5C)cc4C3)c(C)cc2n1 [Compound 1-381, 7-(3-(3,5-dimethylpyridin-2-yl)-7,8-dihydro-1,6-naphthyridin-6(5H)-yl)-2-(methoxymethyl)-8-methyl-4H-pyrimido[1,2-b] pyridazin-4-one]	83%	969 nM
Cc1c(N2CCc3ncc(-c4cncc(C(F)(F)F)c4)cc3C2)nn2c(=O)ccnc2c1C [Compound 1-102, 8,9-dimethyl-7-(3-(5-(trifluoromethyl)pyridin-3-yl)-7,8-dihydro-1,6-naphthyridin-6(5H)-yl)-4H-pyrimido[1,2-b]pyridazin-4-one]	83%	733 nM
COCc1cc(=O)n2nc(N3CCc4ncc(-c5ccc(CO)s5)cc4C3)c(C)cc2n1 [Compound 1-369, 7-(3-(5-(hydroxymethyl)thiophen-2-yl)-7,8-dihydro-1,6-naphthyridin-6(5H)-yl)-2-(methoxymethyl)-8-methyl-4H-pyrimido[1,2-b] pyridazin-4-one]	99%	46 nM
Cc1cc(=O)n2nc(N3CCc4ncc(-c5cnn(-c6ccccn6)c5)cc4C3)c(C)c(C)c2n1 [Compound 1-175, 2,8,9-trimethyl-7-(3-(1-(pyridin-2-yl)-1H-pyrazol-4-yl)-7,8-dihydro-1,6-naphthyridin-6(5H)-yl)-4H-pyrimido[1,2-b]pyridazin-4-one]	61%	4660 nM
Cc1c(N2CCc3ncc(-c4cc(F)ccc4F)cc3C2)nn2c(=O)ccnc2c1C [Compound 1-345, 7-(3-(2,5-difluorophenyl)-7,8-dihydro-1,6-naphthyridin-6(5H)-yl)-8,9-dimethyl-4H-pyrimido[1,2-b]pyridazin-4-one]	70%	200 nM
CCc1cc(=O)n2nc(N3CCc4ncc(C(F)(F)F)cc4C3)c(C)c(C)c2n1 [Compound 1-105, 2-ethyl-8,9-dimethyl-7-(3-(trifluoromethyl)-7,8-dihydro-1,6-naphthyridin-6(5H)-yl)-4H-pyrimido[1,2-b]pyridazin-4-one]	99%	162 nM
COc1ccc(-c2cnc3c(c2)CN(c2nn4c(=O)ccnc4cc2C)CC3)cn1 [Compound 1-60, 7-(3-(6-methoxypyridin-3-yl)-7,8-dihydro-1,6-naphthyridin-6(5H)-yl)-8-methyl-4H-pyrimido[1,2-b]pyridazin-4-one]	104%	140 nM
COc1ncc(-c2cnc3c(c2)CN(c2nn4c(=O)cc(C(F)F)nc4c(C)c2C)CC3)cc1Cl [Compound 1-168, 7-(3-(5-chloro-6-methoxypyridin-3-yl)-7,8-dihydro-1,6-naphthyridin-6(5H)-yl)-2-(difluoromethyl)-8,9-dimethyl-4H-pyrimido[1,2-b]pyridazin-4-one]	72%	2310 nM
Cc1cc2nc(C(F)F)cc(=O)n2nc1N1CCc2ncc(-c3ccnn3C)cc2C1 [Compound 1-36, 2-(difluoromethyl)-8-methyl-7-(3-(1-methyl-1H-pyrazol-5-yl)-7,8-dihydro-1,6-naphthyridin-6(5H)-yl)-4H-pyrimido[1,2-b]pyridazin-4-one]	96%	76 nM
COc1ccc(-c2cnc3c(c2)CN(c2nn4c(=O)cc(C)nc4c(C)c2C)CC3)cc1F [Compound 1-201, 7-(3-(3-fluoro-4-methoxyphenyl)-7,8-dihydro-1,6-naphthyridin-6(5H)-yl)-2,8,9-trimethyl-4H-pyrimido[1,2-b]pyridazin-4-one]	86%	603 nM
Cc1cc(=O)n2nc(N3CCc4ncc(-c5ccccc5Cl)cc4C3)c(C)cc2n1 [Compound 1-256, 7-(3-(2-chlorophenyl)-7,8-dihydro-1,6-naphthyridin-6(5H)-yl)-2,8-dimethyl-4H-pyrimido[1,2-b]pyridazin-4-one]	71%	578 nM
Cc1cc2nc(C(=O)NC3(C#N)CC3)cc(=O)n2nc1N1CCc2ncc(C(F)(F)F)cc2C1 [Compound 1-46, N-(1-cyanocyclopropyl)-8-methyl-4-oxo-7-(3-(trifluoromethyl)-7,8-dihydro-1,6-naphthyridin-6(5H)-yl)-4H-pyrimido[1,2-b]pyridazine-2-carboxamide]	99%	118 nM
Cc1ccc(F)cc1-c1cnc2c(c1)CN(c1nn3c(=O)cc(C(F)F)nc3c(C)c1C)CC2 [Compound 1-171, 2-(difluoromethyl)-7-(3-(5-fluoro-2-methylphenyl)-7,8-dihydro-1,6-naphthyridin-6(5H)-yl)-8,9-dimethyl-4H-pyrimido[1,2-b]pyridazin-4-one]	91%	429 nM
COCc1cc(=O)n2nc(N3CCc4ncc(-c5ccc(OC(F)F)nc5)cc4C3)c(C)c(C)c2n1 [Compound 1-373, 7-(3-(6-(difluoromethoxy)pyridin-3-yl)-7,8-dihydro-1,6-naphthyridin-6(5H)-yl)-2-(methoxymethyl)-8,9-dimethyl-4H-pyrimido[1,2-b]pyridazin-4-one]	64%	299 nM
COc1cnccc1-c1cnc2c(c1)CN(c1nn3c(=O)cc(C)nc3cc1C)CC2 [Compound 1-259, 7-(3-(3-methoxypyridin-4-yl)-7,8-1,6-naphthyridin-6(5H)-yl)-2,8-dimethyl-4H-pyrimido[1,2-b]pyridazin-4-one]	72%	445 nM
